In ChEMBL document CHEMBL4507291 (2021):

What was measured:
[1] = target: Proto-oncogene tyrosine-protein kinase Src (Homo sapiens) (UniProt P12931); experiment: SRC N1 Kinase screen; settings: Compound concentration 1.0 uM
[2] = target: Vasopressin V2 receptor (Homo sapiens) (UniProt P30518); experiment: Inhibition of Vasopressin V2 at 10 µM in the Eurofins-Panlabs radioligand binding assay (Eurofins_assay_287610); design: ligand concentration 4 nM; settings: Compound concentration 10.0 uM
[3] = target: G protein-coupled receptor kinase 5 (Homo sapiens) (UniProt P34947); experiment: GRK5 Kinase screen; settings: Compound concentration 1.0 uM
[4] = tested on: Proto-oncogene tyrosine-protein kinase receptor Ret (Homo sapiens), P07949 [V804L]; experiment: RET V804L Kinase screen; settings: Compound concentration 1.0 uM
[5] = target: LIM domain kinase 2 (Homo sapiens) (UniProt P53671); experiment: LIMK2 Kinase screen; settings: Compound concentration 1.0 uM
[6] = target: SRSF protein kinase 3 (Homo sapiens) (UniProt Q9UPE1); experiment: STK23 (MSSK1) Kinase screen; settings: Compound concentration 1.0 uM
[7] = target: Endothelin-1 receptor (Homo sapiens) (UniProt P25101); settings: Compound concentration 10.0 uM
[8] = target: T1, Ephrin type-A receptor 3 (Homo sapiens) (UniProt P29320); experiment: EPHA3 Kinase screen; settings: Compound concentration 1.0 uM
T1 sequence (whole entry): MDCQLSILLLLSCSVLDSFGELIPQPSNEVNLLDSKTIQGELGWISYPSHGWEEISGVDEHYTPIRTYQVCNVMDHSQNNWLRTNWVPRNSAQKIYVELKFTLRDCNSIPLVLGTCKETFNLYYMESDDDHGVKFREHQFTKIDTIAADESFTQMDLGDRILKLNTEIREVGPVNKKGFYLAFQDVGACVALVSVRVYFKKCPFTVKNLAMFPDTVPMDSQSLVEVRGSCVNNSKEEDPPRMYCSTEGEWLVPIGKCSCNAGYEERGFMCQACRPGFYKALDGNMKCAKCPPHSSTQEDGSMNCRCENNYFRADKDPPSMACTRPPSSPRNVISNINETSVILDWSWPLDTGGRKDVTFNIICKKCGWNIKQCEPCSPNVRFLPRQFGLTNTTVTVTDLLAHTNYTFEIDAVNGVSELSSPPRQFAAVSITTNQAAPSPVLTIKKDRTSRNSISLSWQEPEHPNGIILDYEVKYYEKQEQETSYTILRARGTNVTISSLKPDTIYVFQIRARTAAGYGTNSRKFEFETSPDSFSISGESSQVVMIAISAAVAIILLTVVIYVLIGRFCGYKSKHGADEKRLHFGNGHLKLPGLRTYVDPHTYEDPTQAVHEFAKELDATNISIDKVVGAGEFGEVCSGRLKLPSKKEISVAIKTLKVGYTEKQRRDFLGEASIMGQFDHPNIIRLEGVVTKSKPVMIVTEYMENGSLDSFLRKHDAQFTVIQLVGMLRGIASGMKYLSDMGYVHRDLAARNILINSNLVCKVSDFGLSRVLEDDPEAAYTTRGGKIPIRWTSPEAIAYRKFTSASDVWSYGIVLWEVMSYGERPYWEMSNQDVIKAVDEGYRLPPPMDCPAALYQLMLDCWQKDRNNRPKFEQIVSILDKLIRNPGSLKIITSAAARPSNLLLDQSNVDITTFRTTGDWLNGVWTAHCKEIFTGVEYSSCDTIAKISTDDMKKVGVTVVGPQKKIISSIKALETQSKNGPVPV

[9] = target: Melanin-concentrating hormone receptor 1 (Homo sapiens) (UniProt Q99705); experiment: Melanin-Concentrating Hormone MCH1 (SLC1) Eurofins-Panlabs radioligand binding assay; design: ligand concentration 0.05 nM; settings: Compound concentration 10.0 uM
[10] = target: T2, Serine/threonine-protein kinase D1 (Homo sapiens) (UniProt Q15139); experiment: PRKD1 (PKC mu) Kinase screen; settings: Compound concentration 1.0 uM
T2 sequence (whole entry): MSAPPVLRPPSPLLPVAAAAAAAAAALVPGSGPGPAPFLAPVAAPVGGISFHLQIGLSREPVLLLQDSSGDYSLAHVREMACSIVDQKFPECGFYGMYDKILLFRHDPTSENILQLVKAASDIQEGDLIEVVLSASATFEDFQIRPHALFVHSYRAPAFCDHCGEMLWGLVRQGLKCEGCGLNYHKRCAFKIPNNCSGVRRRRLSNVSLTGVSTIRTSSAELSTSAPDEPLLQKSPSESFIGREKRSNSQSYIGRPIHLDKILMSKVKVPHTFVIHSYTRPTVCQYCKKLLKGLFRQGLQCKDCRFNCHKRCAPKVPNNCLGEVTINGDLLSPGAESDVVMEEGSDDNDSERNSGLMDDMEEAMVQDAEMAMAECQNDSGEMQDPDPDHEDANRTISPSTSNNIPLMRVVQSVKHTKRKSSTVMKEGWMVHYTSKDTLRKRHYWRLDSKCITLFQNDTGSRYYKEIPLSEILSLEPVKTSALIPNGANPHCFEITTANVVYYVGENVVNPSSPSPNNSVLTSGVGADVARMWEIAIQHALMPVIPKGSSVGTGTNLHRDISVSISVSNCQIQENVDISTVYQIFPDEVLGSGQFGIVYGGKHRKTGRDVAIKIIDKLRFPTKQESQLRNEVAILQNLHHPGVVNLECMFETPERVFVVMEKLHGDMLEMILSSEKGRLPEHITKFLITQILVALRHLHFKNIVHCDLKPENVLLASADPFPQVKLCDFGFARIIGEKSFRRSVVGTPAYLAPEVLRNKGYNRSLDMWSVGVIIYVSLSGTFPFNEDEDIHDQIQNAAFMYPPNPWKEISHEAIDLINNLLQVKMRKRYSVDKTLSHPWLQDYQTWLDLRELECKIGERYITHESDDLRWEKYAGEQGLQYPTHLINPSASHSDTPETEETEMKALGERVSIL

[11] = target: Dual specificity tyrosine-phosphorylation-regulated kinase 1B (Homo sapiens) (UniProt Q9Y463); experiment: DYRK1B Kinase screen; settings: Compound concentration 1.0 uM
[12] = target: Prostaglandin E2 receptor EP3 subtype (Homo sapiens) (UniProt P43115); experiment: Prostanoid EP3 Eurofins-Panlabs radioligand binding assay; design: ligand concentration 0.5 nM, non-specific ligand with concentration 10 µM Prostaglandin EŽ2 (PGE2), incubation time 60 min, incubation temperature 25 °C; settings: Compound concentration 10.0 uM
[13] = target: SRSF protein kinase 2 (Homo sapiens) (UniProt P78362); experiment: SRPK2 Kinase screen; settings: Compound concentration 1.0 uM
[14] = target: Casein kinase II subunit alpha (Homo sapiens) (UniProt P68400); experiment: CSNK2A1 (CK2 alpha 1) Kinase screen; settings: Compound concentration 1.0 uM
[15] = target: Sigma non-opioid intracellular receptor 1 (Homo sapiens, UniProt Q99720); experiment: GPCRScan assay: inhibition of Sigma 1; design: radioligand conc. used [nm] 4.0 – 5.0, parental cells HEKT
[16] = target: Leucine-rich repeat serine/threonine-protein kinase 2 (Homo sapiens, UniProt Q5S007); settings: Compound concentration 1000.0 nM

SRSF protein kinase 2 (Homo sapiens), sequence (P78362 whole entry, looked up): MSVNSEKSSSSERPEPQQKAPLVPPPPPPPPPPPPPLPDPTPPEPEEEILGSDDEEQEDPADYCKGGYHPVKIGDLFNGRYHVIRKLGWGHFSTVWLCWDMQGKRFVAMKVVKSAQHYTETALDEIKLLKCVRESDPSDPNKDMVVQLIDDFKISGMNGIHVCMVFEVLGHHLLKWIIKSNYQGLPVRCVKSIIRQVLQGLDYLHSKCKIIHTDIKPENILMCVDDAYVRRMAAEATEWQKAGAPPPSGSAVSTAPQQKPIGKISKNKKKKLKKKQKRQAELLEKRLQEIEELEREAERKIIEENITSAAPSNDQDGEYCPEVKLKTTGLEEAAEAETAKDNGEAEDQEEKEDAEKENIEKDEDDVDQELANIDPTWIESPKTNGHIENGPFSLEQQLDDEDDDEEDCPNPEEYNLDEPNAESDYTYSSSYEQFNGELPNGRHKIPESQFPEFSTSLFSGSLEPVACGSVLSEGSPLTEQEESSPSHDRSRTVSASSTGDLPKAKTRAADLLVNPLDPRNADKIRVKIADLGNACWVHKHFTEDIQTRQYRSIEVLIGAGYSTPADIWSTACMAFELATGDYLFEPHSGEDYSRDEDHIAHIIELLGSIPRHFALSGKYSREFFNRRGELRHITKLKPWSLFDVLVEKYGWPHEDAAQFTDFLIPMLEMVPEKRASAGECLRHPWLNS
Prostaglandin E2 receptor EP3 subtype (Homo sapiens), sequence (P43115 whole entry): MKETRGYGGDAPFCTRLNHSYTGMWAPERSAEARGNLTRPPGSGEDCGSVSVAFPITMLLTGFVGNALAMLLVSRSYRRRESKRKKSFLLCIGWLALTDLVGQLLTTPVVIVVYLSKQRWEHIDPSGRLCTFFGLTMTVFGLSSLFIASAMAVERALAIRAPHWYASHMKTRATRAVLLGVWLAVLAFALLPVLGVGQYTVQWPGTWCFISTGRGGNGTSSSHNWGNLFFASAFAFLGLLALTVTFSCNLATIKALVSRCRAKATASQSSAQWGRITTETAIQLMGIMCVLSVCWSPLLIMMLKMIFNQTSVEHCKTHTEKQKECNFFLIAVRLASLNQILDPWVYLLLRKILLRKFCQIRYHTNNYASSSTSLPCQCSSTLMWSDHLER
Vasopressin V2 receptor (Homo sapiens), sequence (P30518 whole entry): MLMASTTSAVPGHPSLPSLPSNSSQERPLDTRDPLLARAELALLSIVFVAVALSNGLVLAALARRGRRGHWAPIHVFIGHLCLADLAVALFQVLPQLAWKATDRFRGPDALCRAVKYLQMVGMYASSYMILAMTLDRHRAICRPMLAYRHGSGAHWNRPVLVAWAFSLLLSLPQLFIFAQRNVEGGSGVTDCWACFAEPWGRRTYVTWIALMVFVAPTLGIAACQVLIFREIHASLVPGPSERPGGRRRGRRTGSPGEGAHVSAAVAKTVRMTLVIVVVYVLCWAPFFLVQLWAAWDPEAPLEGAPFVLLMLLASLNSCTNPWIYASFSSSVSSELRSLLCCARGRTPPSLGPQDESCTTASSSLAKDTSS
LIM domain kinase 2 (Homo sapiens), sequence (P53671 whole entry, looked up, the tested form may be a part): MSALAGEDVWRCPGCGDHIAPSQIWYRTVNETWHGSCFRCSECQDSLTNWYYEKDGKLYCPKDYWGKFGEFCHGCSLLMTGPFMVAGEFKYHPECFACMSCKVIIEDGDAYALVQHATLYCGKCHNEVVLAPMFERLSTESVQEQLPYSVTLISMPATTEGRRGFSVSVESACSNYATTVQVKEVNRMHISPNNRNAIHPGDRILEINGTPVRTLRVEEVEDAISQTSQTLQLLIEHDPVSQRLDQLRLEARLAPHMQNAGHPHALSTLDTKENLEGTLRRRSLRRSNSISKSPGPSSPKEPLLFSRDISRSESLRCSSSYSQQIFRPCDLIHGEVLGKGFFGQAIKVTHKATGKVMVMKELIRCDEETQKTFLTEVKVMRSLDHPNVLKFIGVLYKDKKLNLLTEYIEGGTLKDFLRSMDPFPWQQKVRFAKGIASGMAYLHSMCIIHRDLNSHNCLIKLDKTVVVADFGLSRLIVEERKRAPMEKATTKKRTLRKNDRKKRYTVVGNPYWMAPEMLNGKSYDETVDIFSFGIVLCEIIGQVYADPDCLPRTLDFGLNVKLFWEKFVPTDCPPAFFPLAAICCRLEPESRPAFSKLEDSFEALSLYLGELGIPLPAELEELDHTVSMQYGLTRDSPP
Endothelin-1 receptor (Homo sapiens), sequence (P25101 whole entry): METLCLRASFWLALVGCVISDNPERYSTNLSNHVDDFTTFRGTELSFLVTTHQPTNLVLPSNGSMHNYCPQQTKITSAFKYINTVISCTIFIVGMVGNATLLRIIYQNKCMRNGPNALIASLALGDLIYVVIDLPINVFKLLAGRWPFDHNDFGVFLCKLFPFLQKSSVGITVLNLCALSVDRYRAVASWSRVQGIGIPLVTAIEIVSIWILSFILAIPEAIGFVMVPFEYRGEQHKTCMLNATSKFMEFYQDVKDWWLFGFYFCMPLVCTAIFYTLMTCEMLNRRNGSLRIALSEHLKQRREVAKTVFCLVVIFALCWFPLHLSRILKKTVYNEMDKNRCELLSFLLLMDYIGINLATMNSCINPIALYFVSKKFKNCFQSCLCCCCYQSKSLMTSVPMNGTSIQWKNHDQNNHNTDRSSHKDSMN
Proto-oncogene tyrosine-protein kinase receptor Ret (Homo sapiens), P07949 [V804L], sequence (P07949 whole entry V804L, the tested form may be a part): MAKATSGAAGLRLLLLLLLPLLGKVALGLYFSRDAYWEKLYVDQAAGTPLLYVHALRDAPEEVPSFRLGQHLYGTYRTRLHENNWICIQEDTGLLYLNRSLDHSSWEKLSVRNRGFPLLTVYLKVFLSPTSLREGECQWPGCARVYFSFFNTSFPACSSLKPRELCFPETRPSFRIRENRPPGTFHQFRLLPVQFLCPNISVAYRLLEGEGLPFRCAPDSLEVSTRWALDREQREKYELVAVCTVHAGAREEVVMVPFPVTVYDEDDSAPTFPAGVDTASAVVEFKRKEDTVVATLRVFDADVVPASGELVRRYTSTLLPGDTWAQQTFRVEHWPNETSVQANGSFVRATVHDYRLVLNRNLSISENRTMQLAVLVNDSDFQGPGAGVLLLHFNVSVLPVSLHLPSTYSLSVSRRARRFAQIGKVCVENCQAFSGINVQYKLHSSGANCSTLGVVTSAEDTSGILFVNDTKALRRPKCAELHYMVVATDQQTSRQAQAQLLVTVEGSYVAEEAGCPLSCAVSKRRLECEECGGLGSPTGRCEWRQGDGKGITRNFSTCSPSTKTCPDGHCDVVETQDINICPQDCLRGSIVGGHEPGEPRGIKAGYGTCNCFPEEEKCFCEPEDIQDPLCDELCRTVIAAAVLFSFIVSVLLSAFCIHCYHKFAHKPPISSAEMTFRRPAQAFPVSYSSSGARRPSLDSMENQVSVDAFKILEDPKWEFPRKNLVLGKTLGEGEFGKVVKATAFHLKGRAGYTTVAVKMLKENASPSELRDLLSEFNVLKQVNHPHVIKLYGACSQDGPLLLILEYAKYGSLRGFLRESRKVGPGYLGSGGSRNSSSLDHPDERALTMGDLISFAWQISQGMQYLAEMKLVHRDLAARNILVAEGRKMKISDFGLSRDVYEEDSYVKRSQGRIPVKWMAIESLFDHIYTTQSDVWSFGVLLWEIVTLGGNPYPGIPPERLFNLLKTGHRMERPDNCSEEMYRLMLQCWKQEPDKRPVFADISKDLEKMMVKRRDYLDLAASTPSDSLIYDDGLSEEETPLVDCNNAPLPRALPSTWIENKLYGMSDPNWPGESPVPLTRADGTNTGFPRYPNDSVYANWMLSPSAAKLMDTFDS
Sigma non-opioid intracellular receptor 1, sequence (Q99720 whole entry): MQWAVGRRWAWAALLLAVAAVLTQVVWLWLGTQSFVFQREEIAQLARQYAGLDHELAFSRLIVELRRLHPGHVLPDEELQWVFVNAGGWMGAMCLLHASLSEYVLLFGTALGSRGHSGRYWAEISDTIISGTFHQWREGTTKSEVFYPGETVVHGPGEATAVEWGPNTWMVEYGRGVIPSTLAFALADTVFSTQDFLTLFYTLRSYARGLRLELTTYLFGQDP
Proto-oncogene tyrosine-protein kinase Src (Homo sapiens), sequence (P12931 2-536 limits assumed): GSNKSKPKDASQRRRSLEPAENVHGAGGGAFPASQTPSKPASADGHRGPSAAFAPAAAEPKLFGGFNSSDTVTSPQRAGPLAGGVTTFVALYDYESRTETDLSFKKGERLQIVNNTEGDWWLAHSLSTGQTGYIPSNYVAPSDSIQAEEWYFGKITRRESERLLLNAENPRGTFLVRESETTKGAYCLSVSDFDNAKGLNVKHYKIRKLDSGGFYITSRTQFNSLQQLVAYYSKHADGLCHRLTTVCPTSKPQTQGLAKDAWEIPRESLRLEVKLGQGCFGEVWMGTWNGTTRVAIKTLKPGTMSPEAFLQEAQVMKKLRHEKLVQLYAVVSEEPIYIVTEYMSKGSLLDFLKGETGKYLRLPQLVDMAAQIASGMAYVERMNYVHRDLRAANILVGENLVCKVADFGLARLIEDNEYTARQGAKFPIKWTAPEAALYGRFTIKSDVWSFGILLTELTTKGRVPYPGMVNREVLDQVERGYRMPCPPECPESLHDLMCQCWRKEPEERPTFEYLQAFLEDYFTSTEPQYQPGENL
Melanin-concentrating hormone receptor 1 (Homo sapiens), sequence (Q99705 whole entry): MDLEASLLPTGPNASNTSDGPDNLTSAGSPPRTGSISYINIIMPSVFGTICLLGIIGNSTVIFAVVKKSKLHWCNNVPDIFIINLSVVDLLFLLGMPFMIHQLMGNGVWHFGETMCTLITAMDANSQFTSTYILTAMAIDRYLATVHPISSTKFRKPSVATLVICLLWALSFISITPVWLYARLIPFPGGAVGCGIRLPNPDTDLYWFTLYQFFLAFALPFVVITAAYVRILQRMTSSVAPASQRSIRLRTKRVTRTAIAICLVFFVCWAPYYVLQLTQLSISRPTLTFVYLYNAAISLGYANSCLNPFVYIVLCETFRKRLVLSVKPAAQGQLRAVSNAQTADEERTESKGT

Row | SMILES | inhibition [1] [%] | inhibition [2] [%] | inhibition [3] [%] | inhibition [4] [%] | inhibition [5] [%] | inhibition [6] [%] | inhibition [7] [%] | inhibition [8] [%] | inhibition [9] [%] | inhibition [10] [%] | inhibition [11] [%] | inhibition [12] [%] | inhibition [13] [%] | inhibition [14] [%] | Ki [15] [µM] | residual activity [16] [%]
1 | C[C@@H]1CN(c2cc(-c3n[nH]c4ccc(OC5(C)CC5)cc34)ncn2)C[C@H](C)O1 [MLi-2] | 5.78 | 9 | 0.0771 | 5.69 | 0.642 | 11.9 | 23 | -3.28 | 1 | 13.2 | 1.77 | -4 | 0.838 | 3.5 | – | –
2 | C[C@@H]1CN(c2cc(-c3nn(C)c4ccc(OC5(C)CC5)cc34)ncn2)C[C@H](C)O1 [MLi-2-NC] | – | – | – | – | – | – | – | – | – | – | – | – | – | – | 1.59 | 22
